Test results from US11021444B2, “Antiviral compounds” (priority 2013, dated 2021).
Read-outs that look alike come from different tables or passages of the source.

How the values were obtained:
recombinant RSV complex = recombinant RSV complex (Human respiratory syncytial virus A, UniProt P28887); experiment: RSV Polymerase Inhibition Assay; type: biochemical
Outline: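 Inhibition measured as reduced incorporation of radiolabel into RNA products, detected by scintillation counting. Reactions: recombinant RSV complex (10 nM), RNA oligonucleotides, Tris-HCl pH 7.5, 6 mM MgCl2, inhibitor titration, 2 h at 30 °C, EDTA stop.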

RSV replicon = experiment: microbe, parasite or virus in culture; type: cell-based; conditions: human respiratory syncytial virus, read-out: EC50, the concentration of the drug required for reducing RSV replicon RNA by 50%
[1] = test system: Respiratory Syncytial Virus (RSV) long strain; experiment: microbe, parasite or virus in culture; type: cell-based; conditions: human respiratory syncytial virus, HEp-2, 120 h, read-out: 50% effective concentration (EC50), HEp-2 cells infected with RSV long strain, 5 days, CCK-8 readout; Tables A and B list compounds by EC50 band
Outline: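 CPE-reduction format: viability measured colorimetrically with CCK-8 (450 nm, 630 nm reference) after 3-4 h, following 5-day infection at 37 °C, 5% CO2. Cells were HEp-2; inoculum 100 TCID50/well; duplicate 9-point 1/3 series starting at 100 μM or 1 μM.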

[2] = Cytotoxicity Determination (CCK-8, without addition of virus); type: cell-based; conditions: human, 50% cytotoxicity concentration (CC50)
Outline: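 Cytotoxicity was measured by CCK-8 after 3-4 hours at 37 °C, following 5 days of uninfected exposure at 37 °C and 5% CO2. Compounds ran as duplicate 7-point 1/2 dilutions starting at 100 μM, with 1% final DMSO. HEp-2 cells had been plated at 1,500/well the day before.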

Sequence of recombinant RSV complex (P28887 whole entry): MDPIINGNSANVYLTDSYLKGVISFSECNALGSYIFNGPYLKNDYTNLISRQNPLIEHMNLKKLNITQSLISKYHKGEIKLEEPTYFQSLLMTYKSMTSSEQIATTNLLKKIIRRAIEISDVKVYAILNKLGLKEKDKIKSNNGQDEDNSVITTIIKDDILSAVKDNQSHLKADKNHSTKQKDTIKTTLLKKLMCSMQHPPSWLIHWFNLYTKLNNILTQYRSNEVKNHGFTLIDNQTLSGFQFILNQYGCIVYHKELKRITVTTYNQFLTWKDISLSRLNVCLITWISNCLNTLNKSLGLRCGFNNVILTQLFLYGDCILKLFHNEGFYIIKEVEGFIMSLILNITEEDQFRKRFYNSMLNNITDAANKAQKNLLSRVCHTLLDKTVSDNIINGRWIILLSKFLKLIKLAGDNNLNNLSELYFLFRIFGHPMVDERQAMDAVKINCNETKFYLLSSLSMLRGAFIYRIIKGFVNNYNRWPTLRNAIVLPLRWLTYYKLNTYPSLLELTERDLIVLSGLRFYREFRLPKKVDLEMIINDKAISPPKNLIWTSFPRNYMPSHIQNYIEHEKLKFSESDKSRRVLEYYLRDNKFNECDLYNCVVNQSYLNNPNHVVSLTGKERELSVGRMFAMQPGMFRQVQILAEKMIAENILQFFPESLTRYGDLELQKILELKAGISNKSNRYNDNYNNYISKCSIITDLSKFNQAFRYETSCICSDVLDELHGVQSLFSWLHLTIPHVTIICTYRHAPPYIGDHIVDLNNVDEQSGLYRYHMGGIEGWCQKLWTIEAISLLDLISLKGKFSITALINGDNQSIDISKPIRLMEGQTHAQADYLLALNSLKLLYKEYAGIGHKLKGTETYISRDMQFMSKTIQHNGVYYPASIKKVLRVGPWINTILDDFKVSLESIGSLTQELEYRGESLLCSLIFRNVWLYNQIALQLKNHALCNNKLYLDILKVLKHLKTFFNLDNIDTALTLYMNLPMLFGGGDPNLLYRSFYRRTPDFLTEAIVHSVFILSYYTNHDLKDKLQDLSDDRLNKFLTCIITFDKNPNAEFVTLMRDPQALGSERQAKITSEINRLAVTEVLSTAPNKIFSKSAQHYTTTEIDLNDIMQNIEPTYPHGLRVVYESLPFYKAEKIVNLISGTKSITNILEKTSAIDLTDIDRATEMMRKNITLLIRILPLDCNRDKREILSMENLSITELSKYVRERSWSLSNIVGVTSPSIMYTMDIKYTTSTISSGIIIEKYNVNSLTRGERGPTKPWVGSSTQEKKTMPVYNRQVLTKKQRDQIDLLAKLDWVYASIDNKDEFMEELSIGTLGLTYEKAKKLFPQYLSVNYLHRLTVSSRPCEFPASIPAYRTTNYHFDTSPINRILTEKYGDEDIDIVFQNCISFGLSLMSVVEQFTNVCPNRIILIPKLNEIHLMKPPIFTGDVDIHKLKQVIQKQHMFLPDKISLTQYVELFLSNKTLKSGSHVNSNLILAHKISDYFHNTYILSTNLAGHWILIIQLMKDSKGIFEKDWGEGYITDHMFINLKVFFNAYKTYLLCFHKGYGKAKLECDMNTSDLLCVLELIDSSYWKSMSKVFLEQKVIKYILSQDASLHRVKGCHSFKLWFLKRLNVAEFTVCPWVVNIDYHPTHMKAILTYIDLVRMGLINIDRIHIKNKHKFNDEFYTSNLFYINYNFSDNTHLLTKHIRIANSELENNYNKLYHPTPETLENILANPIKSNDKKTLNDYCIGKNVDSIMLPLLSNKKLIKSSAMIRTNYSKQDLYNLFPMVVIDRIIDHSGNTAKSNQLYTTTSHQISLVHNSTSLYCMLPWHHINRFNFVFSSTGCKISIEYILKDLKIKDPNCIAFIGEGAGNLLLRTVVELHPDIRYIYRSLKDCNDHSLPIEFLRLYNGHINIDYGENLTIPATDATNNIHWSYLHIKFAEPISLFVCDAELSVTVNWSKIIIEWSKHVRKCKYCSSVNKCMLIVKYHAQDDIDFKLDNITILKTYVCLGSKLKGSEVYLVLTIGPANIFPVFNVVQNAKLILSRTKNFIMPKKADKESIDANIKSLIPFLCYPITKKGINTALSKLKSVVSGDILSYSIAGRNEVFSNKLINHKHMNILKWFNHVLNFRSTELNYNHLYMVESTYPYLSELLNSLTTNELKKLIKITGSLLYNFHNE
Sequence of recombinant RSV complex (P03421 whole entry, further chain): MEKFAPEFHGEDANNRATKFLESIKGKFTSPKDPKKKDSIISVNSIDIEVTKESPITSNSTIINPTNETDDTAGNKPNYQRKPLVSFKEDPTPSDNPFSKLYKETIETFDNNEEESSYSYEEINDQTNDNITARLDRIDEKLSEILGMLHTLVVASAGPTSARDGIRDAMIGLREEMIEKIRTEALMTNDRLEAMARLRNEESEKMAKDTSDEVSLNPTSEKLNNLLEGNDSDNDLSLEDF

Row | Structure (SMILES) | IC50 (recombinant RSV complex) [µM] | EC50 (RSV replicon) [µM] | IC50 (recombinant RSV complex; read-out: IC50 (compound concentration at which the enzyme-catalyzed rate was reduced by 50%), 10 nM recombinant RSV complex, 2 h at 30° C., Tables E, F and G list compounds by IC50 band) [µM] | EC50 [1] [µM] | CC50 at 5 days [2] [µM]
1 | COc1cc(C(=O)NCC(C)(O)c2ccc(OC)c(-c3ccc(F)c(Cl)c3)n2)ccc1-n1cccn1 (stereo not shown) [Compound 128] | < 1 | 1 to 50 |  |  | 
2 | COc1cc(C(=O)NCC(C)(O)c2ccc(OC)c(-c3ccc(F)c(Cl)c3)n2)ccc1-c1ccncc1 (stereo not shown) [Compound 147] | < 1 | < 1 |  |  | 
3 | COc1cc(C(=O)NCC(O)(c2cc3c(c(-c4ccc(F)c(Cl)c4)n2)OCC=C3)C2CC2)ccc1OCCO (stereo not shown) [Compound 306] | < 1 | < 1 |  |  | 
4 | COc1cc(C(=O)NCC(C)(O)c2cc3c(c(-c4ccc(F)c(Cl)c4)n2)OCC=C3)ccc1OCCO (stereo not shown) [Compound 307] | < 1 | < 1 |  |  | 
5 | COc1cc(C(=O)NCC(=O)c2cc3c(c(-c4ccc(F)c(Cl)c4)n2)OCCC3(C)C)ccc1OCCO [Compound 311] | < 1 | < 1 |  |  | 
6 | COc1ccc(C(=O)NCC(O)(c2cc(C(C)(C)N)cc(-c3ccc(F)c(Cl)c3)n2)C(F)(F)F)cc1OC (stereo not shown) [Compound 316] | < 1 | < 1 |  |  | 
7 | COc1cc(C(=O)NCC(O)(c2cc(C(C)(C)N)cc(-c3ccc(F)cc3)n2)C(F)(F)F)ccc1O[C@H]1CCNC1=O (stereo partly shown) [Compound 319] | < 1 | < 1 |  |  | 
8 | COc1cc(C(=O)NCC(O)(c2ccc(OC)c(-c3ccc(F)c(Cl)c3)n2)C(F)(F)F)ccc1OCc1ccn[nH]1 (stereo not shown) [Compound 332] | < 1 | 1 to 50 |  |  | 
9 | COc1cc(C(=O)NCC(O)(c2ccc(OC)c(-c3ccc(F)cc3)n2)C(F)(F)F)ccc1OCC(F)F (stereo not shown) [Compound 341] |  | < 1 | < 1 |  | 
10 | COc1cc(C(=O)NCC(O)(c2cc(C3(NC(C)=O)CCC3)cc(-c3ccc(F)c(Cl)c3)n2)C(F)(F)F)ccc1OC1CC1 (stereo not shown) [Compound 354] | < 1 | < 1 |  |  | 
11 | COc1cc(C(=O)NCC(O)(c2cc(C3(N)CCC3)cc(-c3ccc(F)c(Cl)c3)n2)C(F)(F)F)ccc1OC1CC1 (stereo not shown) [Compound 355] | < 1 | < 1 |  |  | 
12 | COc1cc(C(=O)NCC(C)(OC)c2ccc(OC)c(-c3ccc(F)c(Cl)c3)n2)ccc1OCC(F)F (stereo not shown) [Compound 375] | < 1 | 1 to 50 |  |  | 
13 | COc1cc(C(=O)NCC(C)(OC)c2ccc(OC)c(-c3ccc(F)c(Cl)c3)n2)ccc1OC1CC1 (stereo not shown) [Compound 376] | < 1 | < 1 |  |  | 
14 | COc1cc(C(=O)NCC(O)(c2ccc(OC)c(-c3ccc(F)c(Cl)c3)n2)C(F)(F)F)ccc1OC(C)C (stereo not shown) [Compound 378] | < 1 | 1 to 50 |  |  | 
15 | COc1cc(C(=O)NCC(C)(O)c2ccc(OC)c(-c3ccc(F)c(Cl)c3)n2)ccc1OCS(C)(=O)=O (stereo not shown) [Compound 379] | < 1 | < 1 |  |  | 
16 | COc1ccc(C(O)(CNC(=O)c2ccc(OCC(N)=O)c(F)c2)C(F)(F)F)nc1-c1ccc(F)c(Cl)c1 (stereo not shown) [Compound 380] | < 1 | < 1 |  |  | 
17 | CCNCc1cc(-c2ccc(F)cc2)nc(C(O)(CNC(=O)c2ccc(OC3CC3)c(OC)c2)C(F)(F)F)c1 (stereo not shown) [Compound 389] | < 1 | < 1 |  |  | 
18 | CCNC(C)(C)c1cc(-c2ccc(F)c(Cl)c2)nc(C(O)(CNC(=O)c2ccc(OC3CC3)c(OC)c2)C(F)(F)F)c1 (stereo not shown) [Compound 390] | < 1 | < 1 |  |  | 
19 | CNC(C)(C)c1cc(-c2ccc(F)cc2)nc(C(O)(CNC(=O)c2ccc(OC3CC3)c(OC)c2)C(F)(F)F)c1 (stereo not shown) [Compound 393] | < 1 | < 1 |  |  | 
20 | COc1cc(C(=O)NCC(O)(c2cc(C(C)(C)N)cc(-c3ccc(F)c(Cl)c3)n2)C(F)(F)F)ccc1OCC(F)F (stereo not shown) [Compound 395] | < 1 | < 1 |  |  | 
21 | COc1cc(C(=O)NCC(O)(c2cc(C(C)(C)CN)cc(-c3ccc(F)c(Cl)c3)n2)C(F)(F)F)ccc1OC1CC1 (stereo not shown) [Compound 397] | < 1 | < 1 |  |  | 

Row | Structure (SMILES) | IC50 (recombinant RSV complex) [µM] | EC50 (RSV replicon) [µM] | IC50 (recombinant RSV complex; read-out: IC50 (compound concentration at which the enzyme-catalyzed rate was reduced by 50%), 10 nM recombinant RSV complex, 2 h at 30° C., Tables E, F and G list compounds by IC50 band) [µM] | EC50 [1] [µM] | CC50 at 5 days [2] [µM]
22 | COc1cc(C(=O)NCC(O)(c2ccc(OC)c(-c3ccc(F)c(Cl)c3)n2)C2CC2)ccc1OCC(N)=O (stereo not shown) [Compound 398] | < 1 | < 1 |  |  | 
23 | COc1cc(C(=O)NCC(O)(c2cc(C3(C)CCN(C)C3)cc(-c3ccc(F)cc3)n2)C(F)(F)F)ccc1OC1CC1 (stereo not shown) [Compound 506] | < 1 | < 1 |  |  | 
24 | COc1cc(C(=O)NCC(O)(c2cc3c(c(-c4ccc(F)cc4)n2)OCC3(C)N)C(F)(F)F)ccc1OC1CC1 (stereo not shown) [Compound 509] | < 1 | < 1 |  |  | 
25 | COc1cc(C(=O)NCC(O)(c2cc(C(C)(C)N)cc(-c3ccc(C(F)(F)F)cc3)n2)C(F)(F)F)ccc1OC1CC1 (stereo not shown) [Compound 523] | < 1 | < 1 |  |  | 
26 | COc1cc(C(=O)NCC(O)(c2cc(C(C)(C)N)cc(-c3ccc(F)c(Br)c3)n2)C(F)(F)F)ccc1OC1CC1 (stereo not shown) [Compound 524] | < 1 | < 1 |  |  | 
27 | COc1cc(C(=O)NCC(O)(c2cc(C3(O)CNC3)cc(-c3ccc(F)c(Cl)c3)n2)C(F)(F)F)ccc1OC1CC1 (stereo not shown) [Compound 555] | < 1 | < 1 |  |  | 
28 | COc1cc(C(=O)NCC(O)(c2cc(C3(C)CC(O)C3)cc(-c3ccc(F)c(Cl)c3)n2)C(F)(F)F)ccc1OC1CC1 (stereo not shown) [Compound 564] | < 10 | < 1 |  |  | 
29 | COc1cc(C(=O)NCC(O)(c2cc(C(C)(C)N)cc(-c3ccc(Cl)nc3)n2)C(F)(F)F)ccc1OC1CC1 (stereo not shown) [Compound 567] | < 1 | < 1 |  |  | 
30 | COc1cc(C(=O)NCC(O)(c2cc(C(C)(C)N)cc(-c3ccc(F)c(Cl)c3)n2)C(F)(F)F)ccc1OCC(C)OC(=O)OC(C)C (stereo not shown) [Compound 572] | < 10 | < 1 |  |  | 
31 | COc1cc(C(=O)NCC(O)(c2cc(C3CCNCC3)cc(-c3ccc(F)c(Cl)c3)n2)C(F)(F)F)ccc1OC1CC1 (stereo not shown) [Compound 576] | < 1 | < 1 |  |  | 
32 | COc1cc(C(=O)NCC(O)(c2cc(C(C)(C)NC3COC3)cc(-c3ccc(F)cc3)n2)C(F)(F)F)ccc1OC1CC1 (stereo not shown) [Compound 581] | < 1 | < 1 |  |  | 
33 | COc1cc(C(=O)NCC(O)(c2cc(C3(C)CN(C(C)C)C3)cc(-c3ccc(F)cc3)n2)C(F)(F)F)ccc1OCCO (stereo not shown) [Compound 584] | < 1 | < 1 |  |  | 
34 | COc1cc(C(=O)NCC(O)(c2cc(C(C)(N)CO)cc(-c3ccc(F)cc3)n2)C(F)(F)F)ccc1OC1CC1 (stereo not shown) [Compound 600] | < 1 | < 1 |  |  | 
35 | COc1cc(C(=O)NCC(O)(c2cc(C(C)(C)NC(C)=O)cc(-c3ccc(F)c(Cl)c3)n2)C(F)(F)F)ccc1OC[C@@H](C)O (stereo partly shown) [Compound 601] | < 1 | < 1 |  |  | 
36 | COc1cc(C(=O)NCC(C)(O)c2cc(C(C)(C)N)cc(-c3ccc(F)cc3)n2)ccc1OCC(N)=O (stereo not shown) [Compound 602] | < 1 | < 1 |  |  | 
37 | COc1cc(C(=O)NCC(O)(c2cc([C@]3(C)CCN3)cc(-c3ccc(F)c(Cl)c3)n2)C(F)(F)F)ccc1OC1CC1 (stereo partly shown) [Compound 603] | < 1 | < 1 |  |  | 
38 | COC(=O)C(C)(N)c1cc(-c2ccc(F)cc2)nc(C(O)(CNC(=O)c2ccc(OC3CC3)c(OC)c2)C(F)(F)F)c1 (stereo not shown) [Compound 622] | < 1 | < 1 |  |  | 
39 | COc1cc(C(=O)NC[C@](O)(c2cc3c(c(-c4ccc(F)cc4)n2)OCC3(N)CO)C(F)(F)F)ccc1OC1CC1 (stereo partly shown) [Compound 654] | < 1 |  |  | < 1 | 10 to 100
40 | COc1cc(C(=O)NCC(O)(c2cc3c(c(-c4ccc(Cl)c(Cl)c4)n2)OCC3(C)N)C(F)(F)F)ccc1OCCO (stereo not shown) [Compound 662] | < 1 |  |  | < 1 | 10 to 100
41 | COc1cc(C(=O)NCC(O)(c2cc3c(c(-c4ccc(Cl)c(F)c4)n2)OCC3(C)N)C(F)(F)F)ccc1CO[C@@H](C)O (stereo partly shown) [Compound 666] | < 1 |  |  | < 1 | 10 to 100
42 | COc1cc(C(=O)NCC(O)(c2cc3c(c(-c4ccc(C(F)(F)F)nc4)n2)OCC3(C)N)C(F)(F)F)ccc1OCCO (stereo not shown) [Compound 673] | < 10 |  |  | 1 to 50 | > 100
